Data: article PMC6028453, “BrlR from Pseudomonas aeruginosa is a receptor for both cyclic di-GMP and pyocyanin” (Nature Communications, 2018)
Numbering of substitutions follows the chain as printed.

Assays:
BrlR-C domain = biological target: T1, BrlR-C domain (Pseudomonas aeruginosa, UniProt Q9HUT5); assay: Native gel staining with EB; type: binding
T1 construct: His6 (cleaved yes); made in house; host or cells: E. coli (same protocol as BrlR, induction at 18 °C)
Excerpt: Fig. 5 The BrlR-C domain can bind to diverse toxic compounds with two adjacent binding pockets. a Structural superpositions of BrlR-C and RH6G-bound SAV2435 (PDB code: 5KAU). The residues in contact with the ligand are shown as stick models and are labeled. Electron density (2Fo - Fc map) for imidazole (blue mesh) binding to the BrlR–c-di-GMP complex is contoured at the 1σ level. b The chemical structures of toxic compounds. c FP analyses of the fluorescein binding to BrlR. The binding curves were fit to deduce the binding affinities. d Two μg of BrlR variants were run on the native gel and stained with EB; the scan results are shown in the upper panel. The proteins were visualized by staining with Coomassie blue in the lower panel. e SPR sensorgram and the resulting affinity fit for pyocyanin binding to BrlR. The ligand binding and dissociation phases for all sensorgrams are shown in the upper panel. The concentrations of a pyocyanin are indicated. The binding responses were measured for 4 s before the end of the injection, and the KD values were calculated using the BIAevaluation software in the lower panel. f The monomeric structure of BrlR-C-3A2P complex. 3A2P, PEG and the conserved residues are shown in stick mode. […]
of multidrug inducers in their C-terminal multidrug-binding domains1-3. […]
However, much more dimers than tetramers were detected (Supplementary Fig. 13a). […]

BrlR-C = biological target: T2, BrlR-C (Pseudomonas aeruginosa, UniProt Q9HUT5); assay: FP competition experiment, BrlR-C; type: binding; conditions: 550 μM BrlR-C, 1 nM F-c-di-GMP
T2 construct: His6 (cleaved yes); made in house; host or cells: E. coli (same protocol as BrlR, induction at 18 °C)
T2 sequence (Q9HUT5 120-270): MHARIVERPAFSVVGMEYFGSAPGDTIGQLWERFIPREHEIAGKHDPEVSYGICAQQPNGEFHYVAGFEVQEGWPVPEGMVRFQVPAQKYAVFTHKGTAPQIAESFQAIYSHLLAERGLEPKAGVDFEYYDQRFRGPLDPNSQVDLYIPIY
Protocol: Supplementary Figure 11: FP analyses of F-c-di-GMP binding to BrlR-C. (a) Isotherms of BrlR-C binding to F-c-di-GMP. The binding experiment was carried out at 25 °C in a buffer containing 150 mM NaCl, 25 mM Tris·HCl (pH 7.5), and 1 nM F-c-di-GMP. Increasing concentrations of BrlR-C were titrated into the reaction mixture to obtain the binding isotherms. (b) Fluorescence polarization competition experiment of BrlR-C. As a control, 550 μM BrlR-C was added to the reaction tube containing 1 nM F-c-di-GMP, and different competitors were respectively added in the solution and the values of millipolarization were recorded.
(1 picture or pasted object on this page, not shown here)

BrlR [1] = biological target: T3, BrlR (Pseudomonas aeruginosa, UniProt Q9HUT5); conditions: ref 1 (Chambers et al., 2014) of response letter; cited from earlier work
T3 construct: His6-SUMO (N, cleaved yes); made in house; host or cells: E. coli BL21 DE3
T3 sequence (Q9HUT5 whole entry): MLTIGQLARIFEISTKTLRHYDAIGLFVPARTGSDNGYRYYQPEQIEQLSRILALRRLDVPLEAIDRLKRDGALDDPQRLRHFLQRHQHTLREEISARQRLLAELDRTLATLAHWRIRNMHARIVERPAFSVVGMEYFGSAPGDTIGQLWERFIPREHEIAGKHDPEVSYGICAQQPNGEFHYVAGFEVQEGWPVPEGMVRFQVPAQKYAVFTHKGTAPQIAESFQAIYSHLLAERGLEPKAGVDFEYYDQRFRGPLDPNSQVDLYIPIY

[2] = biological target: T4, BrlR-C2E mut1 (R31A/D35A/Y40A/Y270A) (Pseudomonas aeruginosa, UniProt Q9HUT5, D35A/R31A/Y270A/Y40A); assay: FP binding assay, BrlR-C2E mut1
T4 construct: His6-SUMO (N, cleaved yes); made in house; host or cells: E. coli BL21 DE3
Protocol: (§1) F-c-di-GMP and F-c-di-AMP both contain a fluorophore at one of the 2′-ribose hydroxyls of c-di-GMP and c-di-AMP, respectively (Fig. 2f). To measure the binding of c-di-GMP and c-di-AMP to BrlR variants, 1 nM F-c-di-GMP or F-c-di-AMP was incubated with increasing amounts of indicated BrlR WT, BrlR mutation, or BrlR-C in reaction buffer (25 mM HEPES, 100 mM NaCl, pH 7.5) at 25 °C for 20 min. 1 nM fluorescein was incubated with BrlR WT in the same reaction buffer at 25 °C. FP measurements were conducted on a Synergy 4 Microplate Reader (BioTek) at 25 °C. All experiments were performed in triplicate. The curves were fitted to deduce binding affinities by GraphPad Prism 5.
(§2) BrlR–c-di-GMPs interactions in two separate c-di-GMP binding sites
(§3) In the first binding site, c-di-GMP is half accommodated by the antiparallel β-sheet and two residues (M1 and D35). In detail, the backbone amide protons of the first M1 residue form a hydrogen bond (H-bond) with the phosphate oxygen atom of c-di-GMP, and the side chain of R31 forms two H-bonds with the Gua1 base. The residue D35 also forms an H-bond with the Gua1 base. The aromatic ring of Y40 interacts with the Gua1 base through a hydrophobic π-π interaction. In addition, the hydroxyl group of the Y270 side chain from another subunit interacts with the phosphate 2 of c-di-GMP via an H-bond (Fig. 2d). […]

[3] = biological target: T5, BrlR-C2E mut2 (R67A/R86A) (Pseudomonas aeruginosa, UniProt Q9HUT5, R67A/R86A); assay: FP binding assay, BrlR-C2E mut2
T5 construct: His6-SUMO (N, cleaved yes); made in house; host or cells: E. coli BL21 DE3
T5 sequence (Q9HUT5 whole entry R67A/R86A): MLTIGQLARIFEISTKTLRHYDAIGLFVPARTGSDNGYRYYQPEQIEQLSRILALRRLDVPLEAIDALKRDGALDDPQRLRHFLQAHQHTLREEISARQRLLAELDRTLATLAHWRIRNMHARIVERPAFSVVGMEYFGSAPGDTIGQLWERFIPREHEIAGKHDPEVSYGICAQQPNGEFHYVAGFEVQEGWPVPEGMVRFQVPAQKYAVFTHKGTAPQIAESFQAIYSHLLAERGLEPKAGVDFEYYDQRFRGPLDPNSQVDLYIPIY
Protocol: as §1, §2, §3

BrlR [4] = biological target: T3, BrlR; assay: Fluorescence polarization (FP) binding assay, wild-type BrlR; conditions: 1 nM fluorescent ligand, 25 °C
Excerpt: The most striking feature of the BrlR–c-di-GMP complex is the c-di-GMP-binding mode. The DNA-binding domain contains two separate c-di-GMP-binding sites, and shares a mutually intercalated c-di-GMP dimer in a stacking conformation with a crystallographic symmetry related binding site (Fig. 2a–c). […] The interactions stabilizing the c-di-GMPs are different for the two binding sites (Fig. 2d, e, and details are described in Supplementary Note 1). […] This structural feature allows us to perform fluorescence polarization (FP)-based binding assays[19],[23],[24] by using a fluoresceinated c-di-GMP analog, 2′-Fluo-AHC-c-di-GMP (F-c-di-GMP), containing a fluorophore attached to one of the 2′-ribose hydroxyls (Fig. 2f).
as §1

BrlR C2E mut1 = biological target: T6, BrlR C2E mut1 (UniProt Q9HUT5 1-270, R31A;D35A;Y40A;Y270A); assay: EMSA; c-di-GMP (increased); conditions: protein: recombinant; tags: none (His6-SUMO removed); chain copies: 2; label: 5' FAM on strand 1; blunt
T6 sequence: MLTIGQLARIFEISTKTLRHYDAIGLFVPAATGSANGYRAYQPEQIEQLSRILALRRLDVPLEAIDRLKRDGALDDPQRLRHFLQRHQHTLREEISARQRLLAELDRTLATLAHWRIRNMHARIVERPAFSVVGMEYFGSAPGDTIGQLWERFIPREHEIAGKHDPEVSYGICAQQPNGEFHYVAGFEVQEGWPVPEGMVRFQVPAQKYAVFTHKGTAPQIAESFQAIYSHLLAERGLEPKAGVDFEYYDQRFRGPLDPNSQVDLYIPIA

BrlR C2E mut2 = biological target: T7, BrlR C2E mut2 (UniProt Q9HUT5 1-270, R67A;R86A); assay: EMSA; c-di-GMP (increased); conditions: protein: recombinant; tags: none (His6-SUMO removed); chain copies: 2; label: 5' FAM on strand 1; blunt
T7 sequence: T6 sequence with A31R, A35D, A40Y, R67A, R86A, A270Y

BrlR [5] = biological target: T8, BrlR (UniProt Q9HUT5 1-270); assay: EMSA; conditions: protein: recombinant; tags: none (His6-SUMO removed); chain copies: 4; label: 5' FAM on strand 1; blunt
T8 sequence: T6 sequence with A31R, A35D, A40Y, A270Y

T1 sequence (Q9HUT5 120-270): as the sequence (Q9HUT5 120-270) above

For CC[n+]1c(-c2ccccc2)c2cc(N)ccc2c2ccc(N)cc21 [EB, ethidium bromide], the “staining of protein in native gel” value (BrlR-C domain) was “readily stained” and the “competition with F-c-di-GMP binding to BrlR-C” value (BrlR-C) was “outcompeted”.

For Nc1nc2c(ncn2[C@@H]2O[C@H](COP(=O)(O)OP(=O)(O)OP(=O)(O)O)[C@@H](O)[C@H]2O)c(=O)[nH]1 [GTP], the “effect on binding of c-di-GMP to BrlR” value (BrlR [1]) is listed as “not affected”.

2′-fluo-AHC-c-di-AMP [F-c-di-AMP] gave a Kd [2] of 63.7 ± 5.1 µM, a Kd [3] of 10.3 ± 0.2 µM and a Kd (BrlR [4]) of 12.9 ± 0.7 µM. The Kd (BrlR [4]; listed as 2′-fluo-AHC-c-di-AMP) was 12.9 ± 0.65 µM.

B1: PbrlR 36-bp (dsDNA)
DNA 1: ACCCCTTGACCTTGCCCCAGGGGCAATCCGTAGTCT
DNA 2: AGACTACGGATTGCCCCTGGGGCAAGGTCAAGGGGT
B1: binds (BrlR C2E mut1); binds (BrlR C2E mut2); binds (BrlR [5]).
